Test results reported in US20250034108A1, “SODIUM CHANNEL BLOCKERS” (NOVARTIS AG, priority 2023, published 2025).
pIC50: −log10 of the molar value.

Columns and labels:
Format in all cases: cell-based
human Nav1.5 [1] = target: T1, human Nav1.5 (Homo sapiens (Human), UniProt Q14524); experiment: Qpatch automated patch-clamp, peak Nav1.5 current inhibition, 5-Hz AF-like assay (holding potential -85 mV); conditions: CHO-K1 cells stably expressing human Nav1.5, holding potential -85 mV, Table 5, read-out: Nav1.5 IC50 (5 Hz, AF Rate)
T1 sequence (Q14524 whole entry): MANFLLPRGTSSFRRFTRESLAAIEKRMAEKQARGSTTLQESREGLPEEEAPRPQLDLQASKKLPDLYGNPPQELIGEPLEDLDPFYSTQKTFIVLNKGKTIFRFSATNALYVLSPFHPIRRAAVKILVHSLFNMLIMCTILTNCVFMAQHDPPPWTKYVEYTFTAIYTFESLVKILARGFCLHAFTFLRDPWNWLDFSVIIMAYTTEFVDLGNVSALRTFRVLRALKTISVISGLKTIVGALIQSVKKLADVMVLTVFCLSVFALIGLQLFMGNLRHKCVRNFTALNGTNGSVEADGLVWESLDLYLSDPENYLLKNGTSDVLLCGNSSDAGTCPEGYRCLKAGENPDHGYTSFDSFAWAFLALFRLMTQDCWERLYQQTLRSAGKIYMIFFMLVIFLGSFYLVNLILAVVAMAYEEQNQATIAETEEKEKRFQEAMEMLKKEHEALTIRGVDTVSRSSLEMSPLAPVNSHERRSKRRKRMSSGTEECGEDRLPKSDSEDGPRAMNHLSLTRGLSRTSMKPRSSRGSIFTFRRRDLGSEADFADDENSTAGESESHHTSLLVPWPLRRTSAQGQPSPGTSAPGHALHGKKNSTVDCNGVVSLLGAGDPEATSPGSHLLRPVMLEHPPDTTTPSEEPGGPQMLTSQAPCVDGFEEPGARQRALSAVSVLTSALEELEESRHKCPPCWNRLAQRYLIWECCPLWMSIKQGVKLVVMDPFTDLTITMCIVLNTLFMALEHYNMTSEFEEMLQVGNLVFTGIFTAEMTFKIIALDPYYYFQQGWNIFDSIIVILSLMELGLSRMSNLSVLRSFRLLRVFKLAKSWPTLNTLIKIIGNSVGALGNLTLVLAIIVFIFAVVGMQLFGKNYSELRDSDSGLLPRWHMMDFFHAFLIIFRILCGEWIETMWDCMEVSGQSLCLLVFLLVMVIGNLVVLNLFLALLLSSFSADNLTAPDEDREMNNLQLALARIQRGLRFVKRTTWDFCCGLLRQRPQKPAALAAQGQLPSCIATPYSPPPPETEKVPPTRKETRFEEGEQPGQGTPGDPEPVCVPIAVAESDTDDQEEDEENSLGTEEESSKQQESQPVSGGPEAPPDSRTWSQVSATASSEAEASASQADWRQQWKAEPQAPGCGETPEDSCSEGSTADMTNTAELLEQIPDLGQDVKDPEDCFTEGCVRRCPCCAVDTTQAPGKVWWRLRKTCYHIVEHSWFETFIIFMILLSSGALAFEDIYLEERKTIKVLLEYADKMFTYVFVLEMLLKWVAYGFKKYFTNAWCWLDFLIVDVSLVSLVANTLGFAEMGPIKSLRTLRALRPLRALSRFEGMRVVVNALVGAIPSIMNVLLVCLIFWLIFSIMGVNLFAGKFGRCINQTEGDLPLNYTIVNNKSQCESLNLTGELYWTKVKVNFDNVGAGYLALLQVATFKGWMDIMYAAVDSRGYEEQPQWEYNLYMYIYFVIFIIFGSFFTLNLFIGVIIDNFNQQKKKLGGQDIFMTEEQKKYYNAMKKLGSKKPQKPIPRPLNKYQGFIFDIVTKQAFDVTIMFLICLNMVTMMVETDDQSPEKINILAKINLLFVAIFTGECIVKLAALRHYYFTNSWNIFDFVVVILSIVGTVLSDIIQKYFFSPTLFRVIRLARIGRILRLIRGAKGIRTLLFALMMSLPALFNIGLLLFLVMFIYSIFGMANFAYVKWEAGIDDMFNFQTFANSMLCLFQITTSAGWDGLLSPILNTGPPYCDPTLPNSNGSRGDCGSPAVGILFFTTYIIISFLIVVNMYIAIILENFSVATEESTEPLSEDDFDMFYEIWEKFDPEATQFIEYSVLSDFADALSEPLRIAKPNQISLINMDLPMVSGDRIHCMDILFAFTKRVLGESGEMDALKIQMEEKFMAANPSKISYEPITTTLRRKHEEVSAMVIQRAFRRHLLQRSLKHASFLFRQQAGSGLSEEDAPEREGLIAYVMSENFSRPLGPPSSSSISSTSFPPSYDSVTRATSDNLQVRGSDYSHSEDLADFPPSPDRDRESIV
How it was run: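 CHO-K1 cells stably expressing human Nav1.5, whole-cell automated patch-clamp at room temperature, CsF-based internal. Compounds pre-incubated 3 min each at ascending 0-30 μM; +10 to −85 mV ramp (150 ms) applied at 5 Hz for 12 s from −85 mV holding. IC50 from last-pulse peak current, vehicle-normalized for run-down.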

human Nav1.5 [2] = target: T1, human Nav1.5; experiment: Qpatch automated patch-clamp, peak Nav1.5 current inhibition, 1 Hz sinus rate, ventricular condition (holding potential -100 mV); conditions: CHO-K1 cells stably expressing human Nav1.5, without ATX-II
Excerpt: (§1) Electrophysiology was used to measure the ionic currents in isolated living cells using automated patch-clamp recording, performed using an automated patch-clamp machine called Qpatch (Sophion Bioscience). Two different assay conditions were used to identify compounds with atrial-selective potential. The 5-Hz AF-like assay has more depolarized holding potential at −85 mV to mimic atrial resting membrane potential (RMP) and was used to identify compounds of strong rate-dependence. Active, rate-dependent compounds were then screened at 1 Hz (i.e., sinus rate) at the holding potential of −100 mV to mimic the ventricular scenario and help identify compounds with the largest potency separation or attenuation from the 5-Hz AF-like assay. Such compounds have the potential for treating AF without the QRS liability inherent to Class Ic drugs.
(§2) The sodium current conducted through a cell (via Nav1.5) or electrical signals were processed through a low-pass filter at 5 KHz, re-digitalized and acquired at 20 kHz. Series resistance was not compensated and leak subtraction was performed.
(§3) 1 to 3 million Chinese Hamster Ovary cells (also known as CHO-K1) stably expressing human Nav1.5 were seeded into […] culture flasks with 25 mL medium (consisting of Gibco Dulbecco's Modified Eagle Medium as a base medium with 1% MEM non-essential amino acids, 400 μg/mL Geneticin, 5 μg/mL puromycin and 10% fetal bovine serum) 48-72 hours prior to the experiments. On the day of the experiment, cells were washed once with phosphate-buffered saline (also known as PBS; Gibco) detached with Detachin™ (Genlantis), and re-suspended in CHO—S-SFM II media (Gibco) at 200,000 cells/mL. The CHO—S-SFM II was replaced with assay solutions prior to the assays. Whole-cell currents were recorded at room temperature in the whole-cell configuration. The external aqueous assay solution (pH=7.4; Osm=307-315) contained the following (the concentration for each component is expressed in parentheses in mM): NaCl (140 mM), KCl (4 mM), CaCl2) (2 mM), MgCl2 (1 mM), 4-(2-hydroxyethyl)-1-piperazineethanesulfonic acid, also known as HEPES (10 mM), and glucose (5 mM). The internal aqueous assay solution (pH=7.2; Osm=292-295) contained the following (the concentration for each component is expressed in parentheses in mM): CsF (110 mM), CsCl (10 mM), NaCl (10 mM), HEPES (10 mM), and ethylene glycolbis(β-aminoethyl ether)-N,N,N′,N′-tetraacetic acid, also known as EGTA (10 mM).
(§4) To assess peak Nav1.5 current inhibition mimicking a ventricular condition at sinus rate with or without ATX-II (Nav1.5 IC50 (1 Hz, ATXII) (μM) or (1 Hz, Sinus Rate) (μM)), compounds were first prepared at 10 mM in DMSO, and cells were pre-incubated with test compounds at each concentration for 3 min. in an ascending order of 0, 0.37, 1.1, 3.3, 10 and 30 uM. In the assay with ATX-II (Alomone Labs), 50 nM ATX-II was included during the 3-min. compound incubation. A square pulse (−10 mV; 400 ms and a holding potential at −100 mV) was run at 1 Hz for 25 s until no further inhibition or Nav1.5 current change was observed. The percent inhibition (expressed as ([Iafter compound treatment/Ibefore compound treatment]×100%) is calculated by normalizing the peak current amplitude at the last pulse of each of the 6 compound concentrations by the amplitude before exposure to the test compound. The compiled data was further normalized by vehicle control (DMSO) to account for Nav1.5 current run-down, and IC50 was calculated by Matlab (MathWorks, USA).

human Nav1.5 [3] = target: T1, human Nav1.5; experiment: Qpatch automated patch-clamp, peak Nav1.5 current inhibition, 1 Hz with 50 nM ATX-II (holding potential -100 mV); conditions: CHO-K1 cells stably expressing human Nav1.5, read-out: Nav1.5 IC50 (1 Hz, ATXII)
Excerpt: as §1, §2, §3, §4

| Structure (SMILES) | pIC50 (human Nav1.5 [1]) | pIC50 (human Nav1.5 [2]) | pIC50 (human Nav1.5 [3]) |
| --- | --- | --- | --- |
| CC(O)(CS(N)(=O)=O)c1cccc(-c2ncn(Cc3cc(OC(F)(F)F)ccc3F)n2)n1 (racemic) [Rac-55 + 56, 2-(6-(1-(2-fluoro-5-(trifluoromethoxy)benzyl)-1H-1,2,4-triazol-3-yl)pyridin-2-yl)-2-hydroxypropane-1-sulfonamide] | 5.35 | < 4.52 | 4.77 |
| CC(O)(CS(N)(=O)=O)c1ccc(Cl)c(-c2nnn(Cc3cc(OC(F)(F)F)ccc3F)n2)c1 (single isomer, unassigned) [Example 7, (R or S)-2-(4-chloro-3-(2-(2-fluoro-5-(trifluoromethoxy)benzyl)-2H-tetrazol-5-yl)phenyl)-2-hydroxypropane-1-sulfonamide] | 5.89 | 4.55 | 4.82 |
| CC(O)(CS(N)(=O)=O)c1ccc(Cl)c(-c2nnn(Cc3cc(OC(F)(F)F)ccc3F)n2)c1 (single isomer, unassigned) [Example 8, (R or S)-2-(4-chloro-3-(2-(2-fluoro-5-(trifluoromethoxy)benzyl)-2H-tetrazol-5-yl)phenyl)-2-hydroxypropane-1-sulfonamide] | 5.89 | < 4.52 | 4.55 |
| CC(O)(CS(N)(=O)=O)c1ccc(F)c(-c2nnn(Cc3cc(OC(F)(F)F)ccc3F)n2)c1 (single isomer, unassigned) [Example 9, (R or S)-2-(4-fluoro-3-(2-(2-fluoro-5-(trifluoromethoxy)benzyl)-2H-tetrazol-5-yl)phenyl)-2-hydroxypropane-1-sulfonamide] | 5.39 | < 4.52 | < 4.52 |
| CC(O)(CS(N)(=O)=O)c1ccc(F)c(-c2nnn(Cc3cc(OC(F)(F)F)ccc3F)n2)c1 (single isomer, unassigned) [Example 10, (R or S)-2-(4-fluoro-3-(2-(2-fluoro-5-(trifluoromethoxy)benzyl)-2H-tetrazol-5-yl)phenyl)-2-hydroxypropane-1-sulfonamide] | 6.00 | < 4.52 | 4.96 |
| CC(O)(CS(N)(=O)=O)c1cccc(-c2nnn(Cc3cc(OC(F)(F)F)ccc3F)n2)c1F (single isomer, unassigned) [Example 11, (R or S)-2-(2-fluoro-3-(2-(2-fluoro-5-(trifluoromethoxy)benzyl)-2H-tetrazol-5-yl)phenyl)-2-hydroxypropane-1-sulfonamide] | 5.77 | 5.05 | 5.25 |
| CC(O)(CS(N)(=O)=O)c1cccc(-c2nnn(Cc3cc(OC(F)(F)F)ccc3F)n2)c1F (single isomer, unassigned) [Example 12, (R or S)-2-(2-fluoro-3-(2-(2-fluoro-5-(trifluoromethoxy)benzyl)-2H-tetrazol-5-yl)phenyl)-2-hydroxypropane-1-sulfonamide] | 5.38 | 5.00 | 5.28 |
| CC(C(C)(O)c1cccc(-c2nnn(Cc3cc(OC(F)(F)F)ccc3F)n2)n1)S(N)(=O)=O (single isomer, unassigned) [Example 13, (2R or 2S, 3R or 3S)-3-(6-(2-(2-fluoro-5-(trifluoromethoxy)benzyl)-2H-tetrazol-5-yl)pyridin-2-yl)-3-hydroxybutane-2-sulfonamide] | 5.37 | 4.92 | < 4.52 |
| CC(C(C)(O)c1cccc(-c2nnn(Cc3cc(OC(F)(F)F)ccc3F)n2)n1)S(N)(=O)=O (single isomer, unassigned) [Example 14, (2R or 2S,3R or 3S)-3-(6-(2-(2-fluoro-5-(trifluoromethoxy)benzyl)-2H-tetrazol-5-yl)pyridin-2-yl)-3-hydroxybutane-2-sulfonamide] | 5.40 | < 4.52 | 4.82 |
| CC(C(C)(O)c1cccc(-c2nnn(Cc3cc(OC(F)(F)F)ccc3F)n2)n1)S(N)(=O)=O (single isomer, unassigned) [Example 15, (2R or 2S,3R or 3S)-3-(6-(2-(2-fluoro-5-(trifluoromethoxy)benzyl)-2H-tetrazol-5-yl)pyridin-2-yl)-3-hydroxybutane-2-sulfonamide] | 5.39 | < 4.52 | 4.62 |
| CC(C(C)(O)c1cccc(-c2nnn(Cc3cc(OC(F)(F)F)ccc3F)n2)n1)S(N)(=O)=O (single isomer, unassigned) [Example 16, (2R or 2S, 3R or 3S)-3-(6-(2-(2-fluoro-5-(trifluoromethoxy)benzyl)-2H-tetrazol-5-yl)pyridin-2-yl)-3-hydroxybutane-2-sulfonamide] | 5.55 | 4.80 | 5.32 |
| CC(O)(CS(N)(=O)=O)c1cc(F)cc(-c2nnn(Cc3cc(OC(F)(F)F)ccc3F)n2)c1 (single isomer, unassigned) [Example 23, (R or S)-2-(3-fluoro-5-(2-(2-fluoro-5-(trifluoromethoxy)benzyl)-2H-tetrazol-5-yl)phenyl)-2-hydroxypropane-1-sulfonamide] | 5.25 | < 4.52 | < 4.52 |
| CC(O)(CS(N)(=O)=O)c1cc(F)cc(-c2nnn(Cc3cc(OC(F)(F)F)ccc3F)n2)c1 (single isomer, unassigned) [Example 24, (R or S)-2-(3-fluoro-5-(2-(2-fluoro-5-(trifluoromethoxy)benzyl)-2H-tetrazol-5-yl)phenyl)-2-hydroxypropane-1-sulfonamide] | 5.70 | < 4.52 | 5.11 |
| CC(O)(CS(N)(=O)=O)c1cccc(-c2nnn(Cc3cccc(C(F)(F)F)c3)n2)n1 (single isomer, unassigned) [Example 40, (R or S)-2-hydroxy-2-(6-(2-(3-(trifluoromethyl)benzyl)-2H-tetrazol-5-yl)pyridin-2-yl)propane-1-sulfonamide] | 4.68 | < 4.52 | – |
| CC(O)(CS(N)(=O)=O)c1cccc(-c2nnn(Cc3cccc(C(F)(F)F)c3)n2)n1 (single isomer, unassigned) [Example 41, (R or S)-2-hydroxy-2-(6-(2-(3-(trifluoromethyl)benzyl)-2H-tetrazol-5-yl)pyridin-2-yl)propane-1-sulfonamide] | < 4.52 | < 4.52 | – |
| CC(C(O)c1cccc(-c2nnn(Cc3cc(OC(F)(F)F)ccc3F)n2)n1)S(N)(=O)=O (single isomer, unassigned) [Example 51, (JR or 1S,2R or 2S)-1-(6-(2-(2-fluoro-5-(trifluoromethoxy)benzyl)-2H-tetrazol-5-yl)pyridin-2-yl)-1-hydroxypropane-2-sulfonamide] | 4.60 | < 4.52 | – |
| CC(O)(CS(N)(=O)=O)c1cccc(-c2ncn(Cc3cc(OC(F)(F)F)ccc3F)n2)n1 (single isomer, unassigned) [Example 55, (R or S)-2-(6-(1-(2-fluoro-5-(trifluoromethoxy)benzyl)-1H-1,2,4-triazol-3-yl)pyridin-2-yl)-2-hydroxypropane-1-sulfonamide] | 4.72 | < 4.52 | – |
| CC(O)(CS(N)(=O)=O)c1cccc(-c2ncn(Cc3cc(OC(F)(F)F)ccc3F)n2)n1 (single isomer, unassigned) [Example 56, (R or S)-2-(6-(1-(2-fluoro-5-(trifluoromethoxy)benzyl)-1H-1,2,4-triazol-3-yl)pyridin-2-yl)-2-hydroxypropane-1-sulfonamide] | 4.80 | < 4.52 | – |
